pIC50: −log10 of the molar value. Converted amounts (≈) assume the structure as drawn. The source made the active and inactive calls. The calls are words filed in the database; no cut-off is given here.
Tests used:
[1] = molecular target: Voltage-gated inwardly rectifying potassium channel KCNH2 (Homo sapiens, UniProt Q12809); experiment: Inhibition of human ERG
Escherichia coli [2] = experiment: Antibacterial activity against duck Escherichia coli clinical isolates assessed as diameter of zone of inhibition at 80 ug/ml after 18 hrs by agar diffusion method; type: functional; conditions: for zone of inhibition at 80 µg/mL: read-out: DIZ
Staphylococcus aureus [3] = experiment: Antibacterial activity against Staphylococcus aureus ATCC 29213 measured after 120 days of sample dissolution by serial dilution method; type: functional
Pseudomonas aeruginosa [4] = experiment: Antibacterial activity against Pseudomonas aeruginosa PS1.0050 measured after 120 days of sample dissolution by serial dilution method; type: functional
Salmonella [5] = experiment: Antibacterial activity against Salmonella S1.1152 measured after 120 days of sample dissolution by serial dilution method; type: functional
Escherichia coli [6] = experiment: Antibacterial activity against duck Escherichia coli clinical isolates measured after 120 days of sample dissolution by serial dilution method; type: functional
Staphylococcus aureus [7] = experiment: Antibacterial activity against Staphylococcus aureus ATCC 29213 assessed as diameter of zone of inhibition at 80 ug/ml after 18 hrs by agar diffusion method; type: functional; conditions: for zone of inhibition at 80 µg/mL: ATCC 29213, 18 h, read-out: DIZ
Salmonella [8] = experiment: Antibacterial activity against Salmonella S1.1152 assessed as diameter of zone of inhibition at 80 ug/ml after 18 hrs by agar diffusion method; type: functional; conditions: for zone of inhibition at 80 µg/mL: S1.1152, 18 h, read-out: DIZ
Pseudomonas aeruginosa [9] = experiment: Antibacterial activity against Pseudomonas aeruginosa PS1.0050 assessed as diameter of zone of inhibition at 80 ug/ml after 18 hrs by agar diffusion method; type: functional; conditions: for zone of inhibition at 80 µg/mL: PS1.0050, 18 h, read-out: DIZ
[10] = test system: Mycobacterium tuberculosis; experiment: Antitubercular activity against Mycobacterium tuberculosis H37Rv assessed as growth inhibition at 20 uM after 6 days by […]; type: functional; conditions: 144 h, read-out: GI
[11] = Cytotoxicity against human HeLa cells assessed as growth inhibition at 20 uM by Celltiter-Glo luminescence assay; type: cell-based; conditions: read-out: GI
HeLa = experiment: Cytotoxicity against human HeLa cells by Celltiter-Glo luminescence assay; type: cell-based
[12] = test system: Mycobacterium tuberculosis; experiment: Antitubercular activity against Mycobacterium tuberculosis H37Rv after 6 days by […]; type: functional; conditions: 144 h

Voltage-gated inwardly rectifying potassium channel KCNH2, sequence (Q12809 whole entry, the tested form may be a part): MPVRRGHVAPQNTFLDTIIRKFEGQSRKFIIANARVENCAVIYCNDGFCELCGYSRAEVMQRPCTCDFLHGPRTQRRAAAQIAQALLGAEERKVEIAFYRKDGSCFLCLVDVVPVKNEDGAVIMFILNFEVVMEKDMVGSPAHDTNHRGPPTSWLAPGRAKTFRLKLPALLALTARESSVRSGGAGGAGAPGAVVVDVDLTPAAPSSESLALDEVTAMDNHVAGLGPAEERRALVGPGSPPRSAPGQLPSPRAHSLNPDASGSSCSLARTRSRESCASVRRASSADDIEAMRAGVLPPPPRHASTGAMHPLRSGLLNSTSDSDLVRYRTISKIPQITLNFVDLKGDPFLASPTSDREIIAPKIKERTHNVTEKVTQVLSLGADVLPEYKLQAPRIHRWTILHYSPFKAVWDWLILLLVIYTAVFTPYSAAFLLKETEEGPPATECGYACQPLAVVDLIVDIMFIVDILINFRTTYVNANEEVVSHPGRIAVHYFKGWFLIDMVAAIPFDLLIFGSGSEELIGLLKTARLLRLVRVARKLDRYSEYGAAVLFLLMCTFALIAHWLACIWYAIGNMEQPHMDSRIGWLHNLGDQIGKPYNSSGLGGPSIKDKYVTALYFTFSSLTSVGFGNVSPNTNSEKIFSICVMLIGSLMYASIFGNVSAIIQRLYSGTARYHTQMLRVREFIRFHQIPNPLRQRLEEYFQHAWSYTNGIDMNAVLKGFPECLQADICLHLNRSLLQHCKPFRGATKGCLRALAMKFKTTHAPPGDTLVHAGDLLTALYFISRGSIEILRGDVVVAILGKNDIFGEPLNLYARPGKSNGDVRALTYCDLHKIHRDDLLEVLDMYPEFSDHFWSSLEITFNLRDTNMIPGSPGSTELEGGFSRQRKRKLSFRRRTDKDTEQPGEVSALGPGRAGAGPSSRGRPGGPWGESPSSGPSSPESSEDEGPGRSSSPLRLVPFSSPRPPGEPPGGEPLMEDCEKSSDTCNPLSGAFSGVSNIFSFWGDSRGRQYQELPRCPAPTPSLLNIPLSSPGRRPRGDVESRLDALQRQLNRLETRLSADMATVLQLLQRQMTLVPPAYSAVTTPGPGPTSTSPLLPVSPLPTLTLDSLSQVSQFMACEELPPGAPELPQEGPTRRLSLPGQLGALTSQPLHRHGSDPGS

Cc1nccn1CC(=O)NC1CCN(c2c(F)cc3c(=O)c(C(=O)O)cn(C4CC4)c3c2Cl)C1 (centres undefined)
pIC50 [1]: < 6.00

O=C(Cn1cccn1)NC1CCN(c2c(F)cc3c(=O)c(C(=O)O)cn(C4CC4)c3c2Cl)C1 (centres undefined)
pIC50 [1]: < 6.00

Cc1cc(C)n(CCC(=O)NC2CCN(c3c(F)cc4c(=O)c(C(=O)O)cn(C5CC5)c4c3Cl)C2)n1 (centres undefined)
pIC50 [1]: < 6.00

NC1CCN(c2c(F)cc3c(=O)c(C(=O)O)cn(C4CC4)c3c2Cl)C1 (centres undefined) [CLINAFLOXACIN]
zone of inhibition at 80 µg/mL (Escherichia coli [2]): 7 to 17 mm | MIC (Staphylococcus aureus [3]): 1 µg/mL (≈ 2.73 µM) | MIC (Pseudomonas aeruginosa [4]): 0.125 µg/mL (≈ 0.342 µM) | MIC (Salmonella [5]): 1 µg/mL (≈ 2.73 µM) | MIC (Escherichia coli [6]): 2 µg/mL (≈ 5.47 µM) | zone of inhibition at 80 µg/mL (Staphylococcus aureus [7]): 22 mm | zone of inhibition at 80 µg/mL (Salmonella [8]): 13 to 21 mm | zone of inhibition at 80 µg/mL (Pseudomonas aeruginosa [9]): 22 to 23 mm

O=C(CCn1ccnc1)NC1CCN(c2c(F)cc3c(=O)c(C(=O)O)cn(C4CC4)c3c2Cl)C1 (centres undefined)
pIC50 [1]: < 6.00

O=C(Cn1cnnn1)NC1CCN(c2c(F)cc3c(=O)c(C(=O)O)cn(C4CC4)c3c2Cl)C1 (centres undefined)
pIC50 [1]: < 6.00

Cc1nnnn1CCC(=O)NC1CCN(c2c(F)cc3c(=O)c(C(=O)O)cn(C4CC4)c3c2Cl)C1 (centres undefined)
pIC50 [1]: < 6.00

Nc1n[nH]c(SCC(=O)NC2CCN(c3c(F)cc4c(=O)c(C(=O)O)cn(C5CC5)c4c3Cl)C2)n1 (centres undefined)
zone of inhibition at 80 µg/mL (Escherichia coli [2]): 14 mm | MIC (Staphylococcus aureus [3]): 16 µg/mL (≈ 30.7 µM) | inhibition of growth at 20 µM [10]: 98.2% | MIC (Pseudomonas aeruginosa [4]): 8 µg/mL (≈ 15.3 µM) | MIC (Salmonella [5]): 16 µg/mL (≈ 30.7 µM) | MIC (Escherichia coli [6]): > 16 µg/mL | inhibition at 20 µM [11]: -7.2% | zone of inhibition at 80 µg/mL (Staphylococcus aureus [7]): 16 mm | pIC50 (HeLa): < 4.70 | zone of inhibition at 80 µg/mL (Salmonella [8]): 16 mm | zone of inhibition at 80 µg/mL (Pseudomonas aeruginosa [9]): 16 mm | pIC50 [1]: < 6.00 | MIC [12]: 0.72 µM (≈ 0.376 µg/mL)

O=C(Cn1cnc2ccccc21)NC1CCN(c2c(F)cc3c(=O)c(C(=O)O)cn(C4CC4)c3c2Cl)C1 (centres undefined)
pIC50 [1]: < 6.00

O=C(CCn1cnc2ccccc21)NC1CCN(c2c(F)cc3c(=O)c(C(=O)O)cn(C4CC4)c3c2Cl)C1 (centres undefined)
pIC50 [1]: < 6.00

O=C(CSc1nc2ccccc2[nH]1)NC1CCN(c2c(F)cc3c(=O)c(C(=O)O)cn(C4CC4)c3c2Cl)C1 (centres undefined)
pIC50 [1]: < 6.00

Nc1nnc(SCC(=O)NC2CCN(c3c(F)cc4c(=O)c(C(=O)O)cn(C5CC5)c4c3Cl)C2)s1 (centres undefined)
zone of inhibition at 80 µg/mL (Escherichia coli [2]): 12 mm | MIC (Staphylococcus aureus [3]): 8 µg/mL (≈ 14.8 µM) | inhibition of growth at 20 µM [10]: 99% | MIC (Pseudomonas aeruginosa [4]): 4 µg/mL (≈ 7.42 µM) | MIC (Salmonella [5]): 16 µg/mL (≈ 29.7 µM) | MIC (Escherichia coli [6]): > 16 µg/mL | inhibition at 20 µM [11]: -11.2% | zone of inhibition at 80 µg/mL (Staphylococcus aureus [7]): 12 mm | pIC50 (HeLa): < 4.70 | zone of inhibition at 80 µg/mL (Salmonella [8]): 12 mm | zone of inhibition at 80 µg/mL (Pseudomonas aeruginosa [9]): 15 mm | pIC50 [1]: < 6.00 | MIC [12]: 0.66 µM (≈ 0.356 µg/mL)

O=C(Cn1nnc2ccccc21)NC1CCN(c2c(F)cc3c(=O)c(C(=O)O)cn(C4CC4)c3c2Cl)C1 (centres undefined)
pIC50 [1]: < 6.00

Nc1ccn(CC(=O)NC2CCN(c3c(F)cc4c(=O)c(C(=O)O)cn(C5CC5)c4c3Cl)C2)n1 (centres undefined)
zone of inhibition at 80 µg/mL (Escherichia coli [2]): 23 mm | MIC (Staphylococcus aureus [3]): 16 µg/mL (≈ 32.7 µM) | inhibition of growth at 20 µM [10]: 98.5% | MIC (Pseudomonas aeruginosa [4]): 2 µg/mL (≈ 4.09 µM) | MIC (Salmonella [5]): 16 µg/mL (≈ 32.7 µM) | MIC (Escherichia coli [6]): > 16 µg/mL | inhibition at 20 µM [11]: -17.1% | zone of inhibition at 80 µg/mL (Staphylococcus aureus [7]): 23 mm | zone of inhibition at 80 µg/mL (Salmonella [8]): 23 mm | zone of inhibition at 80 µg/mL (Pseudomonas aeruginosa [9]): 25 mm | pIC50 [1]: < 6.00 | MIC [12]: 1.69 µM (≈ 0.826 µg/mL)

Nc1nnn(CC(=O)NC2CCN(c3c(F)cc4c(=O)c(C(=O)O)cn(C5CC5)c4c3Cl)C2)n1 (centres undefined)
pIC50 [1]: < 6.00

Cc1cn(CCC(=O)NC2CCN(c3c(F)cc4c(=O)c(C(=O)O)cn(C5CC5)c4c3Cl)C2)cn1 (centres undefined)
pIC50 [1]: < 6.00

Cc1nccn1CCC(=O)NC1CCN(c2c(F)cc3c(=O)c(C(=O)O)cn(C4CC4)c3c2Cl)C1 (centres undefined)
pIC50 [1]: < 6.00

Cc1nnnn1CC(=O)NC1CCN(c2c(F)cc3c(=O)c(C(=O)O)cn(C4CC4)c3c2Cl)C1 (centres undefined)
pIC50 [1]: < 6.00

Cc1cc(C)n(CC(=O)NC2CCN(c3c(F)cc4c(=O)c(C(=O)O)cn(C5CC5)c4c3Cl)C2)n1 (centres undefined)
pIC50 [1]: < 6.00

O=C(Cn1ccnn1)NC1CCN(c2c(F)cc3c(=O)c(C(=O)O)cn(C4CC4)c3c2Cl)C1 (centres undefined)
zone of inhibition at 80 µg/mL (Escherichia coli [2]): 16 mm | MIC (Staphylococcus aureus [3]): 4 µg/mL (≈ 8.42 µM) | inhibition of growth at 20 µM [10]: 98.5% | MIC (Pseudomonas aeruginosa [4]): 1 µg/mL (≈ 2.11 µM) | MIC (Salmonella [5]): 16 µg/mL (≈ 33.7 µM) | MIC (Escherichia coli [6]): > 16 µg/mL | inhibition at 20 µM [11]: -10.1% | zone of inhibition at 80 µg/mL (Staphylococcus aureus [7]): 17 mm | zone of inhibition at 80 µg/mL (Salmonella [8]): 19 mm | zone of inhibition at 80 µg/mL (Pseudomonas aeruginosa [9]): 19 mm | pIC50 [1]: < 6.00 | MIC [12]: 2.28 µM (≈ 1.08 µg/mL)

O=C(Cn1ncnn1)NC1CCN(c2c(F)cc3c(=O)c(C(=O)O)cn(C4CC4)c3c2Cl)C1 (centres undefined)
pIC50 [1]: < 6.00

Nc1nnc(SCCC(=O)NC2CCN(c3c(F)cc4c(=O)c(C(=O)O)cn(C5CC5)c4c3Cl)C2)s1 (centres undefined)
diameter of the inhibition zone (DIZ) (Escherichia coli [2]): inactive | inhibition of growth at 20 µM [10]: 95.8% | inhibition at 20 µM [11]: -21.2% | diameter of the inhibition zone (DIZ) (Staphylococcus aureus [7]): inactive | pIC50 (HeLa): < 4.70 | diameter of the inhibition zone (DIZ) (Salmonella [8]): inactive | diameter of the inhibition zone (DIZ) (Pseudomonas aeruginosa [9]): inactive | pIC50 [1]: < 6.00 | MIC [12]: 3.9 µM (≈ 2.16 µg/mL)

O=C(CCn1cccn1)NC1CCN(c2c(F)cc3c(=O)c(C(=O)O)cn(C4CC4)c3c2Cl)C1 (centres undefined)
pIC50 [1]: < 6.00

Cc1nnn(CC(=O)NC2CCN(c3c(F)cc4c(=O)c(C(=O)O)cn(C5CC5)c4c3Cl)C2)n1 (centres undefined)
pIC50 [1]: < 6.00

O=C(Cn1nccn1)NC1CCN(c2c(F)cc3c(=O)c(C(=O)O)cn(C4CC4)c3c2Cl)C1 (centres undefined)
pIC50 [1]: < 6.00

O=C(CCn1ccnn1)NC1CCN(c2c(F)cc3c(=O)c(C(=O)O)cn(C4CC4)c3c2Cl)C1 (centres undefined)
diameter of the inhibition zone (DIZ) (Escherichia coli [2]): inactive | inhibition of growth at 20 µM [10]: 96.9% | inhibition at 20 µM [11]: -9.5% | zone of inhibition at 80 µg/mL (Staphylococcus aureus [7]): 7 mm | pIC50 (HeLa): < 4.70 | diameter of the inhibition zone (DIZ) (Salmonella [8]): inactive | zone of inhibition at 80 µg/mL (Pseudomonas aeruginosa [9]): 14 mm | pIC50 [1]: < 6.00 | MIC [12]: 2.95 µM (≈ 1.44 µg/mL)

O=C(CCn1cncn1)NC1CCN(c2c(F)cc3c(=O)c(C(=O)O)cn(C4CC4)c3c2Cl)C1 (centres undefined)
pIC50 [1]: < 6.00

COc1ccc2[nH]c(SCC(=O)NC3CCN(c4c(F)cc5c(=O)c(C(=O)O)cn(C6CC6)c5c4Cl)C3)nc2c1 (centres undefined)
pIC50 [1]: < 6.00

Nc1nnn(CCC(=O)NC2CCN(c3c(F)cc4c(=O)c(C(=O)O)cn(C5CC5)c4c3Cl)C2)n1 (centres undefined)
pIC50 [1]: < 6.00

Cc1cn(CC(=O)NC2CCN(c3c(F)cc4c(=O)c(C(=O)O)cn(C5CC5)c4c3Cl)C2)cn1 (centres undefined)
pIC50 [1]: < 6.00

O=C(CCn1nccn1)NC1CCN(c2c(F)cc3c(=O)c(C(=O)O)cn(C4CC4)c3c2Cl)C1 (centres undefined)
pIC50 [1]: < 6.00

Cc1nnn(CCC(=O)NC2CCN(c3c(F)cc4c(=O)c(C(=O)O)cn(C5CC5)c4c3Cl)C2)n1 (centres undefined)
pIC50 [1]: < 6.00

O=C(Cn1cncn1)NC1CCN(c2c(F)cc3c(=O)c(C(=O)O)cn(C4CC4)c3c2Cl)C1 (centres undefined)
pIC50 [1]: < 6.00

O=C(Cn1ccnc1)NC1CCN(c2c(F)cc3c(=O)c(C(=O)O)cn(C4CC4)c3c2Cl)C1 (centres undefined)
pIC50 [1]: < 6.00

Cn1nnc(SCC(=O)NC2CCN(c3c(F)cc4c(=O)c(C(=O)O)cn(C5CC5)c4c3Cl)C2)n1 (centres undefined)
pIC50 [1]: < 6.00
